Assay results from ChEMBL document CHEMBL5465560, “Selectivity Literature for EUbOPEN Chemogenomic Library” (2024).

Experiments:
[1] = target: Serine/threonine-protein kinase 25 (Homo sapiens) (UniProt O00506); assay: Selectivity interaction (KinomeScan (DiscoverX)) EUB0000666a STK25; details: at 10 µM
[2] = target: T1, Interleukin-1 receptor-associated kinase 4 (Homo sapiens) (UniProt Q9NWZ3); assay: Selectivity interaction (Kinase panel (KiNativ target engagement assay in Jurkat cells)) EUB0001635a IRAK4; format: cell-based; details: Selectivity number of off-targets 0.0, Selectivity number of targets 233.0, Source Knowledge https://www.sciencedirect.com/science/article/pii/S2451945619300674?via%3Dihub, at 1 µM
T1 sequence (whole entry): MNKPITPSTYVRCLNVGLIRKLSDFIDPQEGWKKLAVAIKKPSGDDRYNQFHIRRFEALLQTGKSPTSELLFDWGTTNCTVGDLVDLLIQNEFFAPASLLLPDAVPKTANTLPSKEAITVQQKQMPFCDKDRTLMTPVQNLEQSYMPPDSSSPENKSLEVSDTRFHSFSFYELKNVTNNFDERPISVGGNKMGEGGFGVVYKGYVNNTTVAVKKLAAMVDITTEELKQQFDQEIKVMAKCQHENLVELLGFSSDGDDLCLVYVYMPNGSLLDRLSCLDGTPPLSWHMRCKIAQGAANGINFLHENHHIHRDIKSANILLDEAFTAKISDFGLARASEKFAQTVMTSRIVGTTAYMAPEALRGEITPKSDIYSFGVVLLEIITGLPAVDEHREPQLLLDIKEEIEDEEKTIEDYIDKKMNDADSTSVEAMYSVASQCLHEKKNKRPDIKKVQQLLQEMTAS

[3] = target: T2, Serine/threonine-protein kinase ULK1 (Homo sapiens) (UniProt O75385); assay: Selectivity interaction (ActivX KiNativ screen (kinase selectivity in THP-1 cell lysates)) EUB0000639a ULK1; format: subcellular; details: lysate, at 1 µM
T2 sequence (whole entry): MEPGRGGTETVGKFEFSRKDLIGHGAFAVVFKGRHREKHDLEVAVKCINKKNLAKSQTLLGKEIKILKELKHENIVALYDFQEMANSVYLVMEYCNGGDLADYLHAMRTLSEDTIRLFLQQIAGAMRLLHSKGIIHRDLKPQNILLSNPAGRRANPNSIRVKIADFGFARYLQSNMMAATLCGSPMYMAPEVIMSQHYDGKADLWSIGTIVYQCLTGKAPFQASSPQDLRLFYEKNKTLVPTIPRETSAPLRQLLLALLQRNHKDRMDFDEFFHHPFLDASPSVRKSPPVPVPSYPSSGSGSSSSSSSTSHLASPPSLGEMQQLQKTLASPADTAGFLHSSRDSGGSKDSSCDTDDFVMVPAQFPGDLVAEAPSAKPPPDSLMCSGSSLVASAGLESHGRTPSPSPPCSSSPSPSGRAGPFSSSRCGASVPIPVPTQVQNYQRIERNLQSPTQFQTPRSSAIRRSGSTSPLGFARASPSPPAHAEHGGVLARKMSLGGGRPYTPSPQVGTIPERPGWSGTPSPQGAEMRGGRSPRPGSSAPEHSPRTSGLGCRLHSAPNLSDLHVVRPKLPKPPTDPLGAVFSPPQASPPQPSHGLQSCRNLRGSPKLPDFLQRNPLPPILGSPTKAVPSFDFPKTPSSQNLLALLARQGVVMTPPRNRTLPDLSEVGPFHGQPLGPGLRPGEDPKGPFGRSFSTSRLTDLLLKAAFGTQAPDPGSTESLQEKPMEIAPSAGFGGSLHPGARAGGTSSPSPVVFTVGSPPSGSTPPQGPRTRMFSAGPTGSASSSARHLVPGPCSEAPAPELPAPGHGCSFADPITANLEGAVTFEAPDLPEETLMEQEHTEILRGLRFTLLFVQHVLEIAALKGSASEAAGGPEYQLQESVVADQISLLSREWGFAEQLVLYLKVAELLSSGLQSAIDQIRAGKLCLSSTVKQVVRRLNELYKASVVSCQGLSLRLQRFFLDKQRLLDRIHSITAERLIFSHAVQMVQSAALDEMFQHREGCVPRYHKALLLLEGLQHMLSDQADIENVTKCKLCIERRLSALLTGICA

Aurora kinase B = Aurora kinase B (Homo sapiens, UniProt Q96GD4); assay: Selectivity interaction (KinomeScan (DiscoverX)) EUB0001619a AURKB; details: at 1 µM
Chain of Aurora kinase B (Q96GD4 whole entry): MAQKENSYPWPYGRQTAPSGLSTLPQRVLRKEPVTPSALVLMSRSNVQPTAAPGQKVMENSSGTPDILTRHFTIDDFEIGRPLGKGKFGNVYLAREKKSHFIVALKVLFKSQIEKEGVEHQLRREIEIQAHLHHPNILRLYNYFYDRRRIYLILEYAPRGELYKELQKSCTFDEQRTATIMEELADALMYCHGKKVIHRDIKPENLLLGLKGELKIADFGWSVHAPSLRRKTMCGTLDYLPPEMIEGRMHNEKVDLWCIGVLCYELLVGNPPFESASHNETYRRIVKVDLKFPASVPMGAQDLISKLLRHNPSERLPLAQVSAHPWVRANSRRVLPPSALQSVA

[4] = target: TGF-beta receptor type-2 (Homo sapiens) (UniProt P37173); assay: Selectivity interaction (KinomeScan (DiscoverX)) EUB0000695a TGFBR2; details: at 100 nM
Chain of TGF-beta receptor type-2 (Homo sapiens) (P37173 whole entry): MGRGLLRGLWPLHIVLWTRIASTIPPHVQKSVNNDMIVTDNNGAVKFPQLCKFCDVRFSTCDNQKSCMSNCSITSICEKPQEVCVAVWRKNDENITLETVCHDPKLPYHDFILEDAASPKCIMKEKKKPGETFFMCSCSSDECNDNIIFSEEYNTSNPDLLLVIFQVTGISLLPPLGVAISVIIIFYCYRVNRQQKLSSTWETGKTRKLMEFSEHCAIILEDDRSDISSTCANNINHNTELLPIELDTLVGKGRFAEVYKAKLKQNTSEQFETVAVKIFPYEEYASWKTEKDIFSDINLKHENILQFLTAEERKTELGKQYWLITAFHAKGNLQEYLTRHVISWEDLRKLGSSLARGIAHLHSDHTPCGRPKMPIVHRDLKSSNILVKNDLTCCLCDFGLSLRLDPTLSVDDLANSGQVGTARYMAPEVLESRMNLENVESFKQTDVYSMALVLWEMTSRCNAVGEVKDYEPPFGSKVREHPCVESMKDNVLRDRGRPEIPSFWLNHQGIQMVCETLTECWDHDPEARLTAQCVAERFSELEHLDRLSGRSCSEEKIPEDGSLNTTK

Chain of Serine/threonine-protein kinase 25 (Homo sapiens) (O00506 whole entry, looked up): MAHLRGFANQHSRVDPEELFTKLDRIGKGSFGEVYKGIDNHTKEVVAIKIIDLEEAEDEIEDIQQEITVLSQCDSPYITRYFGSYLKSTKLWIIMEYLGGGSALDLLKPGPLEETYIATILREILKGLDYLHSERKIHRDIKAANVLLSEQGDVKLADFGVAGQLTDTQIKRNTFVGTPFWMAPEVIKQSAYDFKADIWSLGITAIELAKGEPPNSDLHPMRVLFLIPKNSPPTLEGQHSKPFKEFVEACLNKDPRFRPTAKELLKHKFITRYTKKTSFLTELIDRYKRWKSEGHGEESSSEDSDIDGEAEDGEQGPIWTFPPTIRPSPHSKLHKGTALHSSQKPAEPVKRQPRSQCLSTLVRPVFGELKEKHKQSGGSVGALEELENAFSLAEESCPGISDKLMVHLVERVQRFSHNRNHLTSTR

O=C(NOC[C@H](O)CO)c1ccc(F)c(F)c1Nc1ccc(I)cc1F
% of control [1]: 91%

C=CC(=O)Nc1ccc(C(=O)Nc2[nH]nc3c2CN(C(=O)N[C@H](CN(C)C)c2ccccc2)C3(C)C)cc1
% of engagement [2]: 2%

CC[C@@H]1[C@H](F)C(=O)N[C@@H]1COc1nccc2cc(C(N)=O)c(OC)cc12 [ZIMLOVISERTIB]
% of inhibition [3]: -53.5%

N#Cc1cccc(-c2c[nH]c3ncnc(N4CCOCC4)c23)c1
% of control (Aurora kinase B): 26%

Cc1cc(F)c(C(=O)Nc2cccc(-c3nncn3C(C)C)n2)cc1-n1cnc(C2CC2)c1
% of control [4]: 99%
